Experimental data published in PubChem BioAssay (NCI).
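Values below derive from 48-hour exposures of cells grown in 96-well plates, with endpoints linearly interpolated between the two concentrations bracketing the appropriate inhibition level. TGI is the concentration that stops growth completely.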

Tests used:
Experiment in all cases: NCI tumour cell line growth inhibition, 48 h
SK-MEL-5 melanoma = system: SK-MEL-5 melanoma
M19-MEL melanoma = system: M19-MEL melanoma
T-47D breast = system: T-47D breast
HL-60(TB) leukemia = system: HL-60(TB) leukemia
MDA-N = system: MDA-N
DMS 273 small cell lung = system: DMS 273 small cell lung
NCI-H460 lung = system: NCI-H460 lung
PC-3 prostate = system: PC-3 prostate
HCT-116 colon = system: HCT-116 colon
HS 578T breast = system: HS 578T breast
LOX IMVI melanoma = system: LOX IMVI melanoma
SN12C renal = system: SN12C renal
MDA-MB-231 breast = system: MDA-MB-231 breast
IGROV1 ovarian = system: IGROV1 ovarian
RPMI-8226 leukemia = system: RPMI-8226 leukemia
SK-MEL-28 melanoma = system: SK-MEL-28 melanoma
HCT-15 colon = system: HCT-15 colon
SNB-78 CNS = system: SNB-78 CNS
HOP-62 NSCLC = system: HOP-62 NSCLC
OVCAR-8 ovarian = system: OVCAR-8 ovarian
HT29 colon = system: HT29 colon
SK-OV-3 ovarian = system: SK-OV-3 ovarian
P388 leukemia = system: P388 leukemia
MCF7 breast = system: MCF7 breast
SNB-19 CNS = system: SNB-19 CNS
NCI-H226 lung = system: NCI-H226 lung
DU-145 prostate = system: DU-145 prostate
KM20L2 colon = system: KM20L2 colon
OVCAR-4 ovarian = system: OVCAR-4 ovarian
XF 498 CNS = system: XF 498 CNS
M14 melanoma = system: M14 melanoma
ACHN renal = system: ACHN renal
NCI-H23 lung = system: NCI-H23 lung
OVCAR-3 ovarian = system: OVCAR-3 ovarian
HOP-92 NSCLC = system: HOP-92 NSCLC
NCI-H522 lung = system: NCI-H522 lung
U251 CNS = system: U251 CNS
UACC-257 melanoma = system: UACC-257 melanoma
CAKI-1 renal = system: CAKI-1 renal
SF-295 CNS = system: SF-295 CNS
SW-620 colon = system: SW-620 colon
SR leukemia = system: SR leukemia
OVCAR-5 ovarian = system: OVCAR-5 ovarian
P388/ADR leukemia = system: P388/ADR leukemia
A498 renal = system: A498 renal
786-0 renal = system: 786-0 renal
KM12 colon = system: KM12 colon
SNB-75 CNS = system: SNB-75 CNS
BT-549 breast = system: BT-549 breast
EKVX NSCLC = system: EKVX NSCLC
RXF 393 renal = system: RXF 393 renal
TK-10 renal = system: TK-10 renal
SF-268 CNS = system: SF-268 CNS
HOP-18 NSCLC = system: HOP-18 NSCLC
DLD-1 colon = system: DLD-1 colon
A549 NSCLC = system: A549 NSCLC
CCRF-CEM leukemia = system: CCRF-CEM leukemia
SK-MEL-2 melanoma = system: SK-MEL-2 melanoma
MALME-3M melanoma = system: MALME-3M melanoma
DMS 114 small cell lung = system: DMS 114 small cell lung
K-562 leukemia = system: K-562 leukemia
UACC-62 melanoma = system: UACC-62 melanoma
MOLT-4 leukemia = system: MOLT-4 leukemia
UO-31 renal = system: UO-31 renal
SF-539 CNS = system: SF-539 CNS
NCI/ADR-RES ovarian = system: NCI/ADR-RES ovarian
HCC-2998 colon = system: HCC-2998 colon
SN12K1 renal = system: SN12K1 renal
MDA-MB-435 = system: MDA-MB-435
COLO 205 colon = system: COLO 205 colon

## O=C[C@@H](CO)O[C@H](C=O)n1cnc2c(=O)[nH]cnc21
SK-MEL-5 melanoma
  TGI: 1150 µM
M19-MEL melanoma
  TGI: 1540 µM
T-47D breast
  TGI: 404 µM
HL-60(TB) leukemia
  TGI: 217 µM
MDA-N
  TGI: 1610 µM
DMS 273 small cell lung
  TGI: 1570 µM
NCI-H460 lung
  TGI: 2130 µM
PC-3 prostate
  TGI: 1780 µM
HCT-116 colon
  TGI: 1270 µM
HS 578T breast
  TGI: 2390 µM
LOX IMVI melanoma
  TGI: 534 µM
SN12C renal
  TGI: 1380 µM
MDA-MB-231 breast
  TGI: 1010 µM
IGROV1 ovarian
  TGI: 1360 µM
RPMI-8226 leukemia
  TGI: 633 µM
SK-MEL-28 melanoma
  TGI: 1530 µM
HCT-15 colon
  TGI: 417 µM
SNB-78 CNS
  TGI: 2170 µM
HOP-62 NSCLC
  TGI: 630 µM
OVCAR-8 ovarian
  TGI: 2020 µM
HT29 colon
  TGI: 1910 µM
SK-OV-3 ovarian
  TGI: 1630 µM
P388 leukemia
  TGI: 374 µM
MCF7 breast
  TGI: 409 µM
SNB-19 CNS
  TGI: 2150 µM
NCI-H226 lung
  TGI: 1780 µM
DU-145 prostate
  TGI: 1450 µM
KM20L2 colon
  TGI: 2130 µM
OVCAR-4 ovarian
  TGI: 1150 µM
XF 498 CNS
  TGI: 1690 µM
M14 melanoma
  TGI: 1860 µM
ACHN renal
  TGI: 2050 µM
NCI-H23 lung
  TGI: 1530 µM
OVCAR-3 ovarian
  TGI: 1410 µM
HOP-92 NSCLC
  TGI: 865 µM
NCI-H522 lung
  TGI: 866 µM
U251 CNS
  TGI: 2500 µM
UACC-257 melanoma
  TGI: 1670 µM
CAKI-1 renal
  TGI: 1590 µM
SF-295 CNS
  TGI: 2230 µM
SW-620 colon
  TGI: 868 µM
SR leukemia
  TGI: 1210 µM
OVCAR-5 ovarian
  TGI: 1820 µM
P388/ADR leukemia
  TGI: 257 µM
A498 renal
  TGI: 2150 µM
786-0 renal
  TGI: 2010 µM
KM12 colon
  TGI: 1270 µM
SNB-75 CNS
  TGI: 2270 µM
BT-549 breast
  TGI: 2370 µM
EKVX NSCLC
  TGI: 1320 µM
RXF 393 renal
  TGI: 1470 µM
TK-10 renal
  TGI: 1830 µM
SF-268 CNS
  TGI: 1840 µM
HOP-18 NSCLC
  TGI: 1670 µM
DLD-1 colon
  TGI: 395 µM
A549 NSCLC
  TGI: 2460 µM
CCRF-CEM leukemia
  TGI: 559 µM
SK-MEL-2 melanoma
  TGI: 1400 µM
MALME-3M melanoma
  TGI: 1300 µM
DMS 114 small cell lung
  TGI: 202 µM
K-562 leukemia
  TGI: 496 µM
UACC-62 melanoma
  TGI: 1670 µM
MOLT-4 leukemia
  TGI: 686 µM
UO-31 renal
  TGI: 1420 µM
SF-539 CNS
  TGI: 2230 µM
NCI/ADR-RES ovarian
  TGI: 1810 µM
HCC-2998 colon
  TGI: 1200 µM
SN12K1 renal
  TGI: 1570 µM
MDA-MB-435
  TGI: 2300 µM
COLO 205 colon
  TGI: 992 µM
